From patent US12465605B2, “Methods and materials for gender-dependent treatment of cardiovascular dysfunction” (Mayo Foundation for Medical Education and Research, priority 2019, dated 2025)

Legend:
[1] = system: patients with mild-to-moderate calcific aortic valve stenosis; assay: Phase II clinical trial, six months, progression of valve disease; assay type: in vivo, human
Excerpt: Phase II clinical trial design: Patients with mild-to-moderate calcific aortic valve stenosis (valve area between 1.0 cm^2 and 2.0 cm^2) with well-preserved left ventricular function (ejection fraction>50%) and significant valve calcification (calcium levels>300 units by computed tomography scanning) were recruited for participation in a randomized, double-blind, placebo-controlled trial. After screening, patients were randomized into two groups: • (1) placebo treatment for a minimum of 6 months, or • (2) ataciguat treatment for a minimum of 6 months Patients underwent computed tomography measurements of aortic valve calcification, echocardiographic assessments of ventricular and aortic valve function, and DEXA scanning for assessment of systemic bone mineral density at baseline and at six month intervals after initiation of treatment.
LPA studies in humans with aortic valve calcification: Human plasma LPA levels were measured using a colorimetric, sandwich/quantitative ELISA assay (AB212165) after samples were diluted in diluent buffer. Computed tomography scanning was performed using clinical grade, high-resolution scanning methods that are well-established for assessment of aortic valve calcification. The calcium burden was measured from 3-dimensional, multi-slice images and expressed as arbitrary units (AU).
To determine whether ataciguat could slow progression of FCAVS, a randomized, double-blind, placebo-controlled study was conducted in patients with mild/moderate valvular disease. Key eligibility criteria for the study included valvular calcium levels above 300 AU, a valve area between 1.0 and 2.0 cm^2, an ejection fraction greater than 50%, and absence of congenital heart valve disease (full inclusion/exclusion criteria is shown in TABLE 1). Patients were randomized to placebo or ataciguat treatment for six months, and a subset of patients received treatment for 12 months. Importantly, there was no difference in measured hemodynamic, blood biochemistry, drug treatment, or comorbidity indices between treatment groups at baseline. Given the relatively short duration of follow-up, the primary outcome variable was the change in valvular calcium over time. Secondary and tertiary outcomes were aortic valve and left ventricular function, respectively.

[2] = system: ldlr^−/−/apoB^100/100 mice; assay: ldlr-deficient, apoB100-only mice on western diet with established aortic valve disease (FCAVS); assay type: in vivo, mouse; conditions: for relative collagen fiber thicknesses: picrosirius red
Excerpt: Pre-clinical animal studies: ldlr^−/−/apoB^100/100 mice are low density lipoprotein receptor-deficient, apolipoprotein B100-only mice that consistently develop severe, hemodynamically significant calcific aortic valve stenosis. Thus, these mice develop stenosis in a manner suitable for studying the effects of pharmacological interventions on initiation and progression of calcific aortic valve stenosis.
Two groups of ldlr^−/−/apoB^100/100 mice were placed on Western Diet (WD) for six months, a time point that allowed the mice to develop mild-to-moderate valvular stenosis. At the six-month time point, mice were randomized into two groups: • (1) continued western diet (WD)/continued disease progression group, or • (2) continued western diet+ataciguat in food (WD+ATA)/treatment group.
At the nine-month time point, mice underwent echocardiography (high resolution ultrasound) and blood pressure (tail cuff) measurement, and were sacrificed for tissue and molecular analyses of valvular tissue (histology, immunohistochemistry, quantitative real-time RT-PCR).
A therapeutically-relevant treatment strategy in which ldlr-deficient, apoB100-only mice were fed a western diet for six months (to develop mild/moderate FCAVS) followed by western diet plus ataciguat (150 ppm mixed in food).

[3] = 200 mg/day, all subjects combined
[4] = 200 mg/day, both sexes combined

O=C(Nc1ccc(S(=O)(=O)N2CCOCC2)cc1)c1cc(Cl)ccc1NS(=O)(=O)c1ccc(Cl)s1 [ataciguat, 5-chloro-2-[[(5-chloro-2-thienyl)sulfonyl]amino]-N-[4-(4-morpholinylsulfonyl)phenyl]-benzamide]
changes in aortic valve area, male versus female patients ([1]; 200 mg/day): therapeutic benefit was predominantly conferred to male patients | changes in peak transvalvular velocity ([1]; 200 mg/day): negligible impact | aortic pulse pressure (index of arterial stiffness), seated [1, 3]: attenuated | left ventricular diastolic function (E/e′ or E/A ratio) [1, 3]: attenuate further progression of diastolic dysfunction | left ventricular systolic function (ejection fraction or stroke volume) [1, 3]: prevent the decline in left ventricular function | changes in aortic valve area [1, 4]: can attenuate progression of aortic valve dysfunction | progression of valve calcification [1, 4]: significantly attenuated | left ventricular stroke volume ([1]; 200 mg/day, female subjects): potential worsening | left ventricular systolic function ([1]; 200 mg/day, female subjects): no consistent benefit | left ventricular diastolic function (E/e′ or E/A ratio) ([1]; 200 mg/day, females): negligible therapeutic benefit | pulse pressure ([1]; 200 mg/day, females): no apparent therapeutic benefit | progression of valve calcification, male versus female patients ([1]; 200 mg/day, male patients compared to females): much greater therapeutic benefit | left ventricular diastolic function (E/e′ or E/A ratio) ([1]; 200 mg/day, male subjects): predominant recipients of any therapeutic benefit | left ventricular systolic function (ejection fraction or stroke volume) ([1]; 200 mg/day, male subjects): improved left ventricular systolic function | pulse pressure ([1]; males, compared to placebo): reduction in pulse pressure | aortic valve function vs baseline ([1]; p=0.24 vs baseline): did not worsen significantly | changes in valvular calcium in relation to baseline plasma LPA ([1]; patients with higher vs lower baseline plasma LPA): tended to receive greater therapeutic benefit | ejection fraction ([2]; WD-fed mice, male and female): not improved further | canonical TGFβ signaling (SMAD2/3 phosphorylation) in valve tissue ([2]; both male and female mice): increased | Col1a1 expression (mRNA) ([2]; female mice): significantly reduced | expression of Col15a1 (mRNA) ([2]; female mice): tended to be reduced | relative collagen fiber thicknesses ([2]; female mice): increase the fraction of thinner fibers | aortic valve function (cusp separation distance by echocardiography), male versus female ([2]; long-term treatment): only male mice received a therapeutic benefit | calcification in valve tissue ([2]; male and female animals): reduced | SMAD1/5/8 phosphorylation in valve tissue ([2]; male and female mice, three months): significantly attenuated | markers of osteogenesis Runx2 and SPP1 (mRNA) ([2]; male and female mice, three months, RT-PCR): reduced | diastolic function (E/e′) ([2]; male mice): significantly improved | expression of Col15a1 (mRNA) ([2]; male mice): increased | expression of collagen 1a1 (mRNA) ([2]; male mice): did not significantly affect | valvular calcium, male versus female ([2]; male mice compared with female mice): Greater reductions in valvular calcium | progression of valvular dysfunction and associated reductions in left ventricular diastolic function ([2]; male mice only, long-term treatment): significantly attenuated | relative collagen fiber thicknesses ([2]; male mice): did not impact | MMP2 expression ([2]; male or female mice): not altered | pVASP^239 in aortic valve tissue ([2]; mice of both genders, 150 ppm in food, immunohistochemistry): significantly increased | blood pressure ([2]; mice of either gender, 150 ppm in food): did not alter | expression of the SMAD2/3 target genes CTGF and COL1A1 ([2]; only in female mice): paradoxically reduced
